Results taken from publication PMC7570497, “Design, Synthesis and Functional Analysis of Cyclic Opioid Peptides with Dmt-Tic Pharmacophore” (Molecules, 2020).
Bridge positions count the residues as written; N and C are the ends. Square brackets hold non-standard residues; d marks the D form. Peptide text beside a SMILES is read from it. Phe(2,4-F2) = N[C@@H](Cc1ccc(F)cc1F)C(=O)O; d2Nal = N[C@H](Cc1ccc2ccccc2c1)C(=O)O; Dmt = Cc1cc(O)cc(C)c1C[C@H](N)C(=O)O; Tic = O=C(O)[C@@H]1Cc2ccccc2CN1; dDap = NC[C@@H](N)C(=O)O

Experiments:
[1] = molecular target: T1, human KOR (Homo sapiens, UniProt P41145); assay: Calcium mobilization assay, agonist mode, KOR; assay type: cell-based; details: for KOR α ± SEM (efficacy, intrinsic activity) / KOR pEC50 (CL95%): CHO cells co-expressing human KOR and Gαqi5, inactive = inactive up to 10 μM, n ≥ 5; for KOR α ± SEM (efficacy, intrinsic activity): ratio of peptide Emax to Emax of dynorphin A; for KOR pEC50 (CL95%): Fluo-4 AM, reference agonist dynorphin A, mean ± SEM
T1 construct: expressed in transfected cells; host or cells: CHO cells (gift from Prof. Girolamo Calo, Ferrara University)
Procedure: (§1) Calcium mobilization assay was performed as reported previously. CHO cells stably co-expressing human MOR or KOR and the C-terminally modified Gαqi5 and CHO cells co-expressing DOR and the GαqG66Di5 protein were used for the tests. Briefly, cells incubated for 24 h in 96-well black, clear-bottom plates were loaded with medium supplemented with probenecid (2.5 mmol/L), calcium-sensitive fluorescent dye Fluo-4 AM (3 μmol/L) and pluronic acid (0.01%) and kept at 37 °C for 30 min. Following aspiration of the loading solution and a washing step, serial dilutions of peptide stock solutions were added. Cells without peptides were treated as the control. […] Ligand efficacy was expressed as intrinsic activity (α) calculated as a ratio of the peptide Emax to Emax of the standard agonist.

[2] = Enzymatic stability in rat brain homogenate; assay type: in vitro ADME; details: rat brain homogenate 10 mg protein/mL in Tris.HCl 50 mM pH 7.4; 100 μL homogenate + 100 μL peptide (0.5 mM); 37 °C; 60 min; HPLC area %; three independent experiments; read-out: Enzymatic Stability Area [%]: amount of peptide remained after 60 min incubation with rat brain homogenate
Procedure: The metabolic stability of analogs was assessed in the presence of the rat brain homogenate. All new cyclopeptides remained almost intact after 60 min incubation with the homogenate (Table 1).
Enzymatic degradation studies of the analogs were carried out using rat brain homogenate (10 mg protein/mL). To prepare, the homogenate rat brains were isolated, pooled and homogenized in a Polytron with 20 volumes of Tris.HCl (50 mM, pH 7.4), and the homogenate was then stored at −80°C until use. Aliquots of the homogenate (100 μL) were incubated with 100 μL of peptide (0.5 mM) over 0, 7.5, 15, 22.5, 30, and 60 min at 37 °C, in a final volume of 200 μL. The reaction was stopped at the required time by placing the tube on ice and acidifying the content with 20 μL of HCl (1 M). The aliquots were centrifuged at 20,000× g for 10 min at 4 °C. The supernatants were filtered over Millex-GV syringe filters (Millipore, Billerica, MA, USA) and analyzed by HPLC on a Vydac C18 column (4.6 mm × 250 mm, 5 μm,), using the solvent system of 0.1% TFA in water (A) and 80% acetonitrile in water containing 0.1% TFA (B) and a linear gradient of 0–100% B over 25 min. Three independent experiments for each assay were carried out. The amount of remaining peptide (area %) was calculated.

[3] = molecular target: T2, human MOR (Homo sapiens, UniProt P35372); assay: Calcium mobilization assay, agonist mode, MOR; assay type: cell-based; details: for MOR α ± SEM (efficacy, intrinsic activity): ratio of peptide Emax to Emax of dermorphin
T2 construct: expressed in transfected cells; host or cells: CHO cells (gift from Prof. Girolamo Calo, Ferrara University)

[4] = molecular target: T3, DOR (Homo sapiens, UniProt P41143); assay: Calcium mobilization assay, agonist mode, DOR; assay type: cell-based; design: expressed in transfected cells; host or cells: CHO cells (gift from Prof. Girolamo Calo, Ferrara University); details: CHO cells co-expressing DOR and GαqG66Di5, inactive = inactive up to 10 μM, n ≥ 5; for DOR pEC50 (CL95%): Fluo-4 AM, reference agonist DPDPE, mean ± SEM; for DOR α ± SEM (efficacy, intrinsic activity): ratio of peptide Emax to Emax of DPDPE
Procedure: as §1

[5] = molecular target: T3, DOR; assay: Calcium mobilization assay, antagonism of DPDPE at DOR
[6] = LC-MS elution order in reverse-phase chromatography to estimate lipophilicity; assay type: physicochemical; details: LC-MS (XIC); Aeris Peptide XB-C18 and Kinetex Biphenyl columns, identical order on both; gradient 5–80% acetonitrile in water in 10 min, 0.1% HCOOH
Source text: The lipophilicity of compounds is often a useful characteristic allowing one to predict or rationalize their interactions with a given receptor [40]. Here, the liquid chromatography–mass spectrometry (LC-MS) procedure was applied to study the elution order of analogs in the reverse-phase chromatography to estimate their lipophilicity. The mixture of peptides 1–6 was run in the same experimental conditions on two types of columns, an Aeris Peptide C18 column and a novel biphenyl stationary phase HPLC column. The biphenyl column can be complementary to a C18 column, as it can engage in π–π interactions with the eluted compound [41]. As expected, peptides were more retained on the biphenyl column, due to the π stacking interactions of their aromatic rings with the solid support.
Figure 1 LC-MS chromatograms (extracted ion currents (XIC)) for peptides 1–6. Panel (A): Aeris Peptide XB-C18 column. Panel (B): Kinetex Biphenyl column. […]
Protected amino acids were purchased from Bachem AG (Bubendorf, Switzerland). p-Methylbenzhydrylamine (MBHA) resin was obtained from Novabiochem (San Diego, CA, USA). Semi-preparative and analytical RP-HPLC was performed using Waters Breeze instrument (Milford, MA, USA) with the dual absorbance detector (Waters 2487) on a Vydac C18 column (22 × 250 mm, 10 μm) and Vydac C18 column (4.6 × 250 mm, 5 μm), respectively. […]

[7] = CHO cells co-expressing human MOR and Gαqi5, inactive = inactive up to 10 μM, n ≥ 5

T1 sequence (P41145 whole entry): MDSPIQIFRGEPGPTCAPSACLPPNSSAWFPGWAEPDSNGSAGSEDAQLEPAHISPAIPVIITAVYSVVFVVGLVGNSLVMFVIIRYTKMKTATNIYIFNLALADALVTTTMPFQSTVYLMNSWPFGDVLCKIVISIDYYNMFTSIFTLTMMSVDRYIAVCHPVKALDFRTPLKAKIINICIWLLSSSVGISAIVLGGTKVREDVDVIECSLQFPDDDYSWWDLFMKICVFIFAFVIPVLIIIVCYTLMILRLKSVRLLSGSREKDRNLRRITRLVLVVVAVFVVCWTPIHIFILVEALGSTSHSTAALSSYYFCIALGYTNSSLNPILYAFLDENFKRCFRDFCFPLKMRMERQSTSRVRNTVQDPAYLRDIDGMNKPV
T3 sequence (P41143 whole entry): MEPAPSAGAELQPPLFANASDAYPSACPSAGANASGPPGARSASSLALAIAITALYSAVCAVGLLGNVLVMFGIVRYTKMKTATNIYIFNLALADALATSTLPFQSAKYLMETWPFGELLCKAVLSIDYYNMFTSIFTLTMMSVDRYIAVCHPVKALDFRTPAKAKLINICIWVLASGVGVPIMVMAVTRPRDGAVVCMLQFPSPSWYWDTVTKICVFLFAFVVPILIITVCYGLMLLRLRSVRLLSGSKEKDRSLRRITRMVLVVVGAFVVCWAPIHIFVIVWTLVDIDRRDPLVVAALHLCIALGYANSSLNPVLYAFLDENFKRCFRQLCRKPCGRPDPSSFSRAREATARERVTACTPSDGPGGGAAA
T2 sequence (P35372 whole entry): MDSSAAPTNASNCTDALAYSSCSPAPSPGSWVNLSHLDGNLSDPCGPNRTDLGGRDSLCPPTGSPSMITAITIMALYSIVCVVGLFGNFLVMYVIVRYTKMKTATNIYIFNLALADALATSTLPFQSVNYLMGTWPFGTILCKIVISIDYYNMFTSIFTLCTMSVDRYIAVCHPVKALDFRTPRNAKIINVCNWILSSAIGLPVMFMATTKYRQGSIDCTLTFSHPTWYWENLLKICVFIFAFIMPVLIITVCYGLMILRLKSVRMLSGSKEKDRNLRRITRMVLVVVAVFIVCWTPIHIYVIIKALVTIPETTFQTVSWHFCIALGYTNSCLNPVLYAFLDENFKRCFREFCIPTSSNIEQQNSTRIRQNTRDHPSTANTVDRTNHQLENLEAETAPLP

SMILES | KOR α ± SEM (efficacy, intrinsic activity) [1] | EC50 ([1]; read-out: KOR pEC50 (CL95%) (converted)) [nM] | remaining at 1 h, 0.25 mM [2] [%] | EC50 [3] [nM] | MOR α ± SEM (efficacy, intrinsic activity) [3, 7] | DOR pEC50 (CL95%) [4] | DOR α ± SEM (efficacy, intrinsic activity) [4] | Kb [5] [nM] | KOR pEC50 (CL95%) [1] | Elution order in reverse-phase chromatography (lipophilicity) [6] | MOR pEC50 (CL95%) ([3]; CHO cells co-expressing human MOR and Gαqi5, Fluo-4 AM, reference agonist dermorphin, inactive = inactive up to 10 μM, mean ± SEM, n ≥ 5)
Cc1cc(O)cc(C)c1C[C@H](N)C(=O)N1Cc2ccccc2C[C@H]1C(=O)N[C@@H]1CCCCNC(=O)C[C@@H](C(N)=O)NC(=O)[C@H](Cc2ccccc2)NC(=O)[C@H](Cc2ccccc2)NC1=O [compound 1, Dmt-Tic-c[D-Lys-Phe-Phe-Asp]NH2] (H-[Dmt][Tic][dK]FFD-NH2; lactam 3-6) | 0.20 ± 0.06 | 490 | 97.88 ± 0.83 | 661 | 0.15 ± 0.02 | inactive | inactive | 42.7 |  |  | 
Cc1cc(O)cc(C)c1C[C@H](N)C(=O)N1Cc2ccccc2C[C@H]1C(=O)N[C@@H]1CCCCNC(=O)C[C@@H](C(N)=O)NC(=O)[C@H](Cc2ccccc2)NC1=O [compound 5, Dmt-Tic-c[D-Lys-Phe-Asp]NH2] (H-[Dmt][Tic][dK]FD-NH2; lactam 3-5) | inactive |  | 96.76 ± 0.91 | 813 | 0.3 ± 0.03 | inactive | inactive | 0.525 | inactive | least lipophilic | 
CC[C@H](C)[C@H](NC(=O)[C@H](CCCNC(=N)N)NC(=O)[C@H](CCCNC(=N)N)NC(=O)[C@H](CC(C)C)NC(=O)[C@H](Cc1ccccc1)NC(=O)CNC(=O)CNC(=O)[C@@H](N)Cc1ccc(O)cc1)C(=O)N[C@@H](CCCNC(=N)N)C(=O)N1CCC[C@H]1C(=O)N[C@@H](CCCCN)C(=O)N[C@@H](CC(C)C)C(=O)N[C@@H](CCCCN)C(=O)N[C@@H](Cc1c[nH]c2ccccc12)C(=O)N[C@@H](CC(=O)O)C(=O)N[C@@H](CC(N)=O)C(=O)N[C@@H](CCC(N)=O)C(=O)O [dynorphin A, reference compound] |  |  |  |  |  |  | 0.99 ± 0.04 |  |  |  | 
Cc1cc(O)cc(C)c1C[C@H](N)C(=O)N1Cc2ccccc2C[C@H]1C(=O)N[C@@H]1CCCCNC(=O)C[C@@H](C(N)=O)NC(=O)[C@@H](Cc2ccc3ccccc3c2)NC(=O)[C@H](Cc2ccccc2)NC1=O [compound 2, Dmt-Tic-c[D-Lys-Phe-D-2Nal-Asp]NH2] (H-[Dmt][Tic][dK]F[d2Nal]D-NH2; lactam 3-6) | inactive |  | 98.17 ± 0.23 | 617 | 0.37 ± 0.05 | inactive | inactive | 28.2 | inactive |  | 
Cc1cc(O)cc(C)c1C[C@H](N)C(=O)N1Cc2ccccc2C[C@H]1C(=O)N[C@@H]1CNC(=O)C[C@@H](C(N)=O)NC(=O)[C@H](Cc2ccccc2)NC(=O)[C@H](Cc2ccccc2)NC1=O [compound 4, Dmt-Tic-c[D-Dap-Phe-Phe-Asp]NH2] (H-[Dmt][Tic][dDap]FFD-NH2; lactam 3-6) | inactive |  | 96.21 ± 0.89 |  | inactive | inactive | inactive | 2.45 | inactive |  | inactive
C[C@@H](NC(=O)[C@@H](N)Cc1ccc(O)cc1)C(=O)N[C@@H](Cc1ccccc1)C(=O)NCC(=O)N[C@@H](Cc1ccc(O)cc1)C(=O)N1CCC[C@H]1C(=O)N[C@@H](CO)C(N)=O [dermorphin, reference compound] | inactive |  |  |  | 1.00 | inactive | inactive |  | inactive |  | 
CC1(C)SSC(C)(C)[C@@H](NC(=O)[C@@H](N)Cc2ccc(O)cc2)C(=O)NCC(=O)N[C@@H](Cc2ccccc2)C(=O)N[C@H]1C(=O)O [DPDPE, reference compound] | inactive |  |  |  |  |  |  |  | inactive |  | 
Cc1cc(O)cc(C)c1C[C@H](N)C(=O)N1Cc2ccccc2C[C@H]1C(=O)N[C@@H]1CCCCNC(=O)C[C@@H](C(N)=O)NC(=O)[C@H](Cc2ccc(F)cc2F)NC(=O)[C@H](Cc2ccccc2)NC1=O [compound 3, Dmt-Tic-c[D-Lys-Phe-2,4F2-Phe-Asp]NH2] (H-[Dmt][Tic][dK]F[Phe(2,4-F2)]D-NH2; lactam 3-6) |  |  | 95.19 ± 0.86 |  |  |  |  |  |  |  | 
Cc1cc(O)cc(C)c1C[C@H](NC(=O)[C@@H]1Cc2ccccc2CN1C(=O)[C@@H]1CC(=O)NCCCC[C@@H](NC(=O)[C@@H]2Cc3ccccc3CN2C(=O)[C@@H](N)Cc2c(C)cc(O)cc2C)C(=O)N[C@@H](Cc2ccccc2)C(=O)N1)C(N)=O [compound 6, Dmt-Tic-c[D-Lys-Phe-Asp]-Tic-Dmt-NH2] (H-[Dmt][Tic][dK]FD[Tic][Dmt]-NH2; lactam 3-5) | inactive |  | 97.6 ± 1.2 | 331 | 0.17 ± 0.20 | inactive | inactive | 1.1 | inactive |  | 
